# Source: patent US9834544B2, “Sweet flavor modifier” (SENOMYX, INC., priority 2011, dated 2017)
row,Compound,melting point
1,"Cc1nc2cccc(OCC(C)(C)NC(=O)CC(C)C)c2c(N)c1C(=O)O [Example 5, 4-amino-2-methyl-5-(2-methyl-2-(3-methylbutanamido)propoxy)quinoline-3-carboxylic acid]",195 to 198 °C
2,"CNC(=O)[C@H]1CC[C@H](Oc2cccc3nc(C)c(C(=O)O)c(N)c23)CC1 [Example 22, 4-amino-2-methyl-5-(((1,4)-trans-4-(methylcarbamoyl)cyclohexyl)oxy)quinoline-3-carboxylic acid]",195 to 198 °C
3,"Cc1nc2cccc(OCC(C)(C)NC(=O)CC3CCOCC3)c2c(N)c1C(=O)O [Example 13, 4-amino-2-methyl-5-(2-methyl-2-(2-(tetrahydro-2H-pyran-4-yl)acetamido)-propoxy)quinoline-3-carboxylic acid]",175 to 178 °C
4,"Cc1nc2cccc(OCC(C)(C)NC(=O)C3CCC3)c2c(N)c1C(=O)O [Example 9, 4-amino-5-(2-(cyclobutanecarboxamido)-2-methylpropoxy)-2-methylquino-line-3-carboxylic acid]",186 to 190 °C
5,"CCC(=O)NC(C)(C)COc1cccc2nc(C)c(C(=O)O)c(N)c12 [Example 8, 4-amino-2-methyl-5-(2-methyl-2-propionamidopropoxy)quinoline-3-carboxylic acid]",189 to 193 °C
6,"Cc1nc2cccc(OCC(C)(C)NC(=O)C3CCOCC3)c2c(N)c1C(=O)O [Example 7, 4-amino-2-methyl-5-(2-methyl-2-(tetrahydro-2H-pyran-4-carboxamido)-propoxy)quinoline-3-carboxylic acid]",170 to 173 °C
7,"Cc1nc2cccc(O[C@H]3CC[C@H](NC(=O)C(C)C)CC3)c2c(N)c1C(=O)O [Example 4, 4-amino-5-(((1,4)-trans-4-isobutyramidocyclohexyl)oxy)-2-methylquinoline-3-carboxylic acid]",183 to 185 °C
8,"Cc1nc2cccc(OCC(C)(C)NC(=O)CN3CCOCC3)c2c(N)c1C(=O)O [Example 17, 4-amino-2-methyl-5-(2-methyl-2-(2-morpholinoacetamido)propoxy)quinoline-3-carboxylic acid]",173 to 175 °C
9,"CCC(CC)NC(=O)C(C)(C)COc1cccc2nc(C)c(C(=O)O)c(N)c12 [Example 16, 4-amino-5-(2,2-dimethyl-3-oxo-3-(pentan-3-ylamino)propoxy)-2-methyl-quinoline-3-carboxylic acid]",172 to 174 °C
10,"Cc1nc2cccc(OCC(C)(C)NC(=O)C(C)C)c2c(N)c1C(=O)O [Example 6, 4-amino-5-(2-isobutyramido-2-methylpropoxy)-2-methylquinoline-3-carboxylic acid]",184 to 186 °C

# Results, then the compound that gave them:
row,melting point,Compound
1,177 to 179 °C,"Cc1nc2cccc(OCC(C)(C)C(=O)NCC3CC3)c2c(N)c1C(=O)O [Example 14, 4-amino-5-(3-((cyclopropylmethyl)amino)-2,2-dimethyl-3-oxopropoxy)-2-methylquinoline-3-carboxylic acid]"
2,168 to 170 °C,"CCC(=O)N1CCC(COc2cccc3nc(C)c(C(=O)O)c(N)c23)CC1 [Example 21, 4-amino-2-methyl-5-((1-propionylpiperidin-4-yl)methoxy)quinoline-3-carboxylic acid]"
3,184 to 186 °C,"Cc1nc2cccc(OC3CCN(C(=O)C(C)C)CC3)c2c(N)c1C(=O)O [Example 10, 4-amino-5-((1-isobutyrylpiperidin-4-yl)oxy)-2-methylquinoline-3-carboxylic acid]"
4,183 to 187 °C,"Cc1nc2cccc(OCC(C)(C)C(=O)NC3CCC3)c2c(N)c1C(=O)O [Example 3, 4-amino-5-(3-(cyclobutylamino)-2,2-dimethyl-3-oxopropoxy)-2-methylquino-line-3-carboxylic acid]"
5,227 to 229 °C,"Cc1nc2cccc(OCC(C)(C)C(=O)NC3CC3)c2c(N)c1C(=O)O [Example 2, 4-amino-5-(3-(cyclopropylamino)-2,2-dimethyl-3-oxopropoxy)-2-methyl-quinoline-3-carboxylic acid]"
